Test results reported in ChEMBL document CHEMBL3259794, “Towards the discovery of drug-like epigallocatechin gallate analogs as Hsp90 inhibitors” (Bioorg Med Chem Lett, 2014).

Assays:
[1] = molecular target: T1, Heat shock protein HSP 90-beta (Homo sapiens, UniProt P08238); test: Inhibition of HSP90 (unknown origin) by luciferase refolding assay
[2] = molecular target: T1, Heat shock protein HSP 90-beta; test: Ratio of EGCG IC50 to compound IC50 for HSP90 (unknown origin)

T1 sequence (P08238 whole entry): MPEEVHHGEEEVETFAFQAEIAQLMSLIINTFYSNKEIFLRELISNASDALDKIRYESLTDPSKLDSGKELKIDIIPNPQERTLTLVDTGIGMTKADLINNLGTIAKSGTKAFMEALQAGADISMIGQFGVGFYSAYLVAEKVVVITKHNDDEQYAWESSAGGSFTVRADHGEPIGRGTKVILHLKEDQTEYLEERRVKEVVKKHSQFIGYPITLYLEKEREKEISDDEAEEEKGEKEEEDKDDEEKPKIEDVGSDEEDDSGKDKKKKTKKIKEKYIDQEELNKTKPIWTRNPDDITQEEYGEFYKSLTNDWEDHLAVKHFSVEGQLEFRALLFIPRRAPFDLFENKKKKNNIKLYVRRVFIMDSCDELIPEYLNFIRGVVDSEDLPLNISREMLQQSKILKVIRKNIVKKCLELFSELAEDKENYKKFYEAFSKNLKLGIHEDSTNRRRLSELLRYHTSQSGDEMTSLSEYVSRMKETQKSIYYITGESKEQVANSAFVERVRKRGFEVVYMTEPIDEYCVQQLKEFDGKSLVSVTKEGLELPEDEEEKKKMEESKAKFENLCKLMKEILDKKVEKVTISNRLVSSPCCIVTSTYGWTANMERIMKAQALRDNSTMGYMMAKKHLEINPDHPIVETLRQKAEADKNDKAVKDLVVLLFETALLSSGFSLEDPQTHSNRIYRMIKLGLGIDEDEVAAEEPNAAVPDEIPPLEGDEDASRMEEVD

Row | SMILES | IC50 [1] | Ratio IC50 [2]
1 | O=C(O[C@@H]1Cc2c(O)cc(O)cc2O[C@@H]1c1ccc(O)c(O)c1)[C@H]1CC[C@H](F)CC1 | 69 µM | –
2 | O=C(O[C@@H]1Cc2ccccc2O[C@@H]1c1ccccc1)c1cc(O)c(O)c(O)c1 (racemic) | 35 µM | –
3 | O=C(O[C@@H]1Cc2c(O)cc(O)cc2O[C@@H]1c1cc(O)c(O)c(O)c1)c1ccncc1 | 64 µM | –
4 | O=C(N[C@@H]1Cc2c(O)cc(O)cc2O[C@@H]1c1cc(O)c(O)c(O)c1)c1ccccc1 | 75 µM | –
5 | O=C(O[C@@H]1Cc2c(O)cc(O)cc2O[C@@H]1c1cc(O)c(O)c(O)c1)C1CCCCC1 | 30 µM | –
6 | O=C(O[C@@H]1Cc2c(O)cc(O)cc2O[C@H]1c1cc(O)c(O)c(O)c1)c1cc(O)c(O)c(O)c1 [GALLOCATECHIN GALLATE] | 34 µM | –
7 | O=C(O[C@@H]1Cc2c(O)cc(O)cc2O[C@@H]1c1cc(O)c(O)c(O)c1)c1ccccc1 | 24 µM | –
8 | O=C(O[C@H]1Cc2c(O)cc(O)cc2O[C@@H]1c1ccc(O)c(O)c1)c1ccccc1 | 110 µM | –
9 | O=C(O[C@H]1Cc2c(O)cc(O)cc2O[C@@H]1c1ccc(O)c(O)c1)C1CCCCC1 | 98 µM | –
10 | O=S(=O)(N[C@@H]1Cc2c(O)cc(O)cc2O[C@@H]1c1cc(O)c(O)c(O)c1)c1ccccc1 | 44 µM | 3
11 | O=C(O[C@@H]1Cc2c(O)cc(O)cc2O[C@@H]1c1cc(O)c(O)c(O)c1)c1cc(O)c(O)c(O)c1 [EPIGALOCATECHIN GALLATE] | 155 µM | –
12 | O=C(O[C@@H]1Cc2c(O)cc(O)cc2O[C@@H]1c1ccccc1)c1ccccc1 (racemic) | 63 µM | –
13 | O=C(O[C@@H]1Cc2c(O)cc(O)cc2O[C@@H]1c1ccc(O)c(O)c1)[C@H]1CC[C@H](O)CC1 | 440 µM | –
14 | O=C(O[C@@H]1Cc2c(O)cc(O)cc2O[C@@H]1c1cc(O)c(O)c(O)c1)c1ccc(F)c(F)c1 | 58 µM | –
15 | O=C(O[C@H]1Cc2c(O)cc(O)cc2O[C@@H]1c1ccccc1)c1cc(O)c(O)c(O)c1 (racemic) | 150 µM | –
16 | O=C(O[C@H]1Cc2c(O)cc(O)cc2O[C@@H]1c1ccccc1)c1ccccc1 (racemic) | 120 µM | –
17 | O=C(O[C@@H]1Cc2c(O)cc(O)cc2O[C@@H]1c1ccc(O)c(O)c1)C1CC1 | 410 µM | –
18 | O=C(O[C@@H]1Cc2c(O)cc(O)cc2O[C@@H]1c1ccc(O)c(O)c1)C1CCCCC1 | 81 µM | –
19 | O=C(O[C@H]1Cc2c(O)cc(O)cc2O[C@@H]1c1ccc(O)c(O)c1)[C@H]1CC[C@@H](O)CC1 | 280 µM | –
20 | O=C(O[C@@H]1Cc2c(O)cc(O)cc2O[C@@H]1c1ccc(O)c(O)c1)[C@H]1CC[C@@H](F)CC1 | 65 µM | –
21 | O=C(O[C@@H]1Cc2c(O)cc(O)cc2O[C@@H]1c1ccc(O)c(O)c1)[C@H]1CC[C@@H](O)CC1 | 310 µM | –
22 | O=C(O[C@@H]1Cc2c(O)cc(O)cc2O[C@@H]1c1cc(O)c(O)c(O)c1)c1ccc(F)cc1 | 41 µM | –
